The values that follow come from paper PMC11666819, “Isolation, Structure Elucidation, and Bioactivity Evaluation of Two Alkaloids From Piper chaba H. Stem: A Traditional Medicinal Spice and Its Chemico‐Pharmacological Aspects” (Food Science & Nutrition, 2024).

The subject of experiment [1] is Staphylococcus aureus [ATCC25923]. Briefly: Disk diffusion test. It counts as cell-based. As to conditions: for Zone of Inhibition: standards 30 μg/disk; for zone of inhibition at 100 µg/disc: ATCC25923. On the technique in general: Agar diffusion results depend on both activity and mobility in agar.
In experiment [2] the test system is Bacillus subtilis [ATCC6633]. Briefly: Disk diffusion test. It counts as cell-based. As to conditions: for Zone of Inhibition: standards 30 μg/disk; for zone of inhibition at 100 µg/disc: ATCC6633.
The test system of experiment [3] is Pseudomonas aeruginosa [ATCC27833]. Put plainly: Disk diffusion test. It counts as cell-based. As to conditions: for zone of inhibition at 100 µg/disc: ATCC27833.
The subject of experiment [4] is Bacillus cereus [clinical isolates]. Briefly: Disk diffusion test. Format: cell-based.
Experiment [5] concerns Sarcina lutea [clinical isolates]. Put plainly: Disk diffusion test. Format: cell-based. As to conditions: for Zone of Inhibition: Sarcina lutea, standards 30 μg/disk; for zone of inhibition at 100 µg/disc: Micrococcus luteus.
In experiment [6] the test system is Shigella dysenteriae [clinical isolates]. Put plainly: Disk diffusion test. Format: cell-based. As to conditions: for Zone of Inhibition: standards 30 μg/disk.
Experiment [7] relates to Vibrio mimicus [clinical isolates]. Put plainly: Disk diffusion test. Conditions: for Zone of Inhibition: standards 30 μg/disk. Format: cell-based.
For experiment [8], the system named is Salmonella paratyphi [clinical isolates]. Briefly: microbe, parasite or virus in culture. It counts as cell-based. As to conditions: for Zone of Inhibition: Salmonella paratyphi, standards 30 μg/disk; for zone of inhibition at 100 µg/disc: Salmonella enterica, PARATYPHI
For experiment [9], the system named is Escherichia coli [ATCC25922]. Put plainly: Disk diffusion test. Format: cell-based. Conditions: for Zone of Inhibition: standards 30 μg/disk; for zone of inhibition at 100 µg/disc: ATCC25922.
For experiment [10], the system named is Bacillus megaterium [ATCC 25918]. Put plainly: Disk diffusion test. Format: cell-based. As to conditions: for Zone of Inhibition: Bacillus megaterium, standards 30 μg/disk; for zone of inhibition at 100 µg/disc: Priestia megaterium, ATCC25918.
Experiment [11] concerns Vibrio parahemolyticus [clinical isolates]. Put plainly: Disk diffusion test. It counts as cell-based. As to conditions: for Zone of Inhibition: Vibrio parahemolyticus, standards 30 μg/disk; for zone of inhibition at 100 µg/disc: Vibrio.
The subject of experiment [12] is Salmonella typhi [clinical isolates]. Put plainly: Disk diffusion test. Conditions: for Zone of Inhibition: Salmonella typhi; for zone of inhibition at 100 µg/disc: Salmonella enterica, TYPHI. Format: cell-based.
The test system of experiment [13] is eight tested human tumor cell lines. Also on record: method as in Wang et al. [2014]. Conditions: ref Wang et al. [2014]; cited from earlier work.
The test system of experiment [14] is acetic acid‐induced writhing. Put plainly: Acetic acid‐induced writhing test. As to conditions: mice; for Number of writhing: mean. Format: in vivo, Swiss albino mice. How it is done:
(§1) To carry out the in vivo experiment, Swiss albino mice aged between 4 and 5 weeks, of both genders, were obtained from the Animal Resource Branch of the International Centre for Diarrheal Diseases and Research, Bangladesh (ICDDR, B) (the size of the animal population, n = 5). The mice were housed in standard polypropylene cages with a 12‐h light–dark cycle. Additionally, optimal conditions such as a controlled room temperature of 24°C ± 2°C and a relative humidity of 60%–70% were upheld. They were provided with ICDDR, B‐formulated rodent food, and water ad libitum. The research protocol was approved by the Animal Ethics Committee of the State University of Bangladesh, Dhaka (2023‐01‐04/SUB/A‐ ERC/003) before initiating the study. Throughout the experiments, strict adherence to guidelines for the use and care of laboratory animals was ensured. Recognizing the sensitivity of mice to environmental variations, they were acclimatized to the experimental conditions for a minimum of 3–4 days before the commencement of the experiment. Furthermore, all ethical protocols and regulations were strictly adhered to during the design and execution of the research experiments. At the end of the experiment, an anesthesia overdose (Ketamine HCl [100 mg/kg] and Xylazine [7.5 mg/kg]) through the intraperitoneal route was given to the mice models followed by euthanasia, following the previously delineated protocols established by Zimmermann ([1983]) and Davis ([2001]) (Alam et al. [2021]; Davis [2001]; Zimmermann [1983]). All tests were carried out in abiding with the guidelines for the care and use of laboratory animals, as approved by the institutional ethical committee.
The analgesic efficacy of the isolated compounds, Chabamide I and Chingchengenamide A, was assessed utilizing the acetic acid‐induced writhing test, following the methodology outlined by Ahmad et al. ([2010]). […] Conversely, Groups III and IV received individual alkaloids at doses of 10 and 20 mg/kg; b.w, p.o., respectively. Subsequently, an intraperitoneal injection of acetic acid solution (0.6% v/v) was administered. The frequency of writhing responses was meticulously recorded at 5‐min intervals post‐acetic acid injection and monitored over 25 min.
(In general: An intraperitoneal irritant provokes the stretching counted in writhing tests.)

The subject of experiment [15] is castor oil‐induced diarrhea. Put plainly: Castor oil‐induced diarrhea test. Format: in vivo, Swiss albino mice. As to conditions: mice; for Number of diarrheal feces: mean. The method, then: as §1
The antidiarrheal potential of the compounds Chabamide I and Chingchengenamide A isolated from P. chaba was scrutinized employing the castor oil‐induced method, as delineated by Shoba and Thomas ([2001]) with slight adjustments. In this investigation, mice were judiciously randomized into four cohorts, each consisting of six subjects. Before experimentation, the mice underwent an overnight fasting period with unrestricted access to water.
Group I, designated as the control, received vehicle solutions comprising distilled water with 1% Tween‐80. […] Groups III and IV, representing the test cohorts, received isolated phytochemicals individually at oral dosages of 10 and 20 mg/kg body weight, respectively. An additional 0.5 mL of castor oil was applied to all subjects 1 h after the initial application of test samples. Subsequently, individual mice were placed in enclosures with floors lined with transparent paper.
Throughout the observational timeframe, diverse parameters were meticulously monitored, encompassing the initiation of diarrhea, quantification of wet stools in terms of number and weight, and the cumulative number and weight of fecal output. The observation persisted until 4 h […] the subsequent application of castor oil, with the calculated mean values being designated as the definitive results.

Where “and” joins values, the source holds several entries; their conditions need not be identical. Identical values can stand only once.

Regarding `CC1(C)S[C@@H]2[C@H](NC(=O)[C@H](N)c3ccc(O)cc3)C(=O)N2[C@H]1C(=O)O` [Amoxicillin, amoxicillin, reference compound], the “Zone of Inhibition” value in experiment [1] is given as 36 mm; in experiment [2] it was 26 mm; in [3] (standards 30 μg/disk) it was 38 mm; in experiment [4] (standards 30 μg/disk), 33 mm; in experiment [5], 32 mm; in experiment [6], 30 mm. Moreover, the “Zone of Inhibition” value is recorded as 28 mm in experiment [7]; 32 mm in experiment [8]; 37 mm in experiment [9]; 29 mm in experiment [10]; 35 mm in [11]; 31 mm in experiment [12] (standards 30 μg/disk).

As for `CC[C@H]1OC(=O)[C@H](C)[C@@H](O[C@H]2C[C@@](C)(OC)[C@@H](O)[C@H](C)O2)[C@H](C)[C@@H](O[C@@H]2O[C@H](C)C[C@H](N(C)C)[C@H]2O)[C@](C)(O)C[C@@H](C)CN(C)[C@H](C)[C@@H](O)[C@]1(C)O` [Azithromycin, azithromycin, reference compound], the “Zone of Inhibition” value in experiment [1] is listed as 39 mm; in [2], 32 mm; in experiment [3] (standards 30 μg/disk), 42 mm; in [4] (standards 30 μg/disk) it was 35 mm; in experiment [5] it was 37 mm; in experiment [6], 38 mm. Besides, the “Zone of Inhibition” value in experiment [7] was found to be 33 mm; in experiment [8] it was 32 mm; in [9] it was 39 mm; in experiment [10], 33 mm; in experiment [11], 40 mm; in experiment [12] (standards 30 μg/disk), 38 mm.

For the compound `CC(C)CNC(=O)C1C(C(=O)N2CCCCC2)C=CC(c2ccc3c(c2)OCO3)C1c1ccc2c(c1)OCO2` (stereo not drawn) [Chabamide I], the “inhibitory effectiveness against human tumor cell lines” value in experiment [13] is on record as “inhibitory effectiveness against at least one of eight tested human tumor cell lines”. In addition, the zone of inhibition (in general, the size of the clear area around the sample on an inoculated plate) at 100 µg/disc in experiment [1] stood at 18 mm; in experiment [2], 11 mm; in experiment [3], 21 mm; in experiment [4], 20 mm; in [5] it was 16 mm; in experiment [6], 18 mm. The zone of inhibition at 100 µg/disc was 15 mm in experiment [7]; 18 mm in experiment [8]; 18 mm in experiment [9]; 15 mm in experiment [10]; 16 mm in [11]; 21 mm in [12]. The “% reduction of writhing” value in [14] (10 mg/kg b.w., p.o.) is on record as 40.82%; in experiment [14] (20 mg/kg b.w., p.o.), 53.06%. Further, the Number of writhing in experiment [14] (10 mg/kg b.w., p.o.) amounted to 9.67; in experiment [14] (20 mg/kg b.w., p.o.), 7.67. For the same compound, the “Zone of Inhibition” value in experiment [3] (100 μg/disk), in experiment [4] (100 μg/disk) and in experiment [12] (100 μg/disk) was “notable antimicrobial activity” each time. Besides, the “% reduction of diarrhea” value in experiment [15] (10 mg/kg b.w., oral) is given as 43.33%; in experiment [15] (20 mg/kg b.w., oral), 46.67%. Moreover, the “Number of diarrheal feces” value in [15] (10 mg/kg b.w., oral) is given as 5.67; in [15] (20 mg/kg b.w., oral) it was 5.33.

Consider `CC(C)CNC(=O)/C=C/C=C/CCc1ccc2c(c1)OCO2` [Chingchengenamide A], for which, in experiment [13], the “inhibitory effectiveness against human tumor cell lines” value is given as “inhibitory effectiveness against at least one of eight tested human tumor cell lines”. Besides, the zone of inhibition at 100 µg/disc in experiment [1] came out at 15 mm; in experiment [2], 13 mm; in experiment [3], 21 mm; in experiment [4], 17 mm; in experiment [5], 16 mm; in [6], 15 mm. Also, the zone of inhibition at 100 µg/disc in experiment [7] came to 16 mm; in [8] it was 14 mm; in [9], 17 mm; in [10] it was 14 mm; in experiment [11] it was 15 mm; in [12], 12 mm. For the same compound, the “% reduction of writhing” value in experiment [14] (10 mg/kg b.w., p.o.) was 34.69%; in experiment [14] (20 mg/kg b.w., p.o.) it was 42.86%. The Number of writhing in experiment [14] (10 mg/kg b.w., p.o.) is given as 10.67; in experiment [14] (20 mg/kg b.w., p.o.) it was 9.33. Moreover, the “% reduction of diarrhea” value was 33.33% in experiment [15] (10 mg/kg b.w., oral) and 40% in [15] (20 mg/kg b.w., oral). Moreover, the “Number of diarrheal feces” value is on record as 6.67 in [15] (10 mg/kg b.w., oral) and 6 in experiment [15] (20 mg/kg b.w., oral).

`O=C(O)Cc1ccccc1Nc1c(Cl)cccc1Cl` [Diclofenac Sodium, diclofenac sodium, reference compound]: the “% reduction of writhing” value in [14] (standard, 5 mg/kg b.w., 5 mg/kg) was 80% and 77.55%. The compound further gave a Number of writhing in experiment [14] (standard, 5 mg/kg b.w.) of 3.67.

For the compound `CN(C)C(=O)C(CCN1CCC(O)(c2ccc(Cl)cc2)CC1)(c1ccccc1)c1ccccc1` [Loperamide, loperamide, reference compound], the “Number of diarrheal feces” value in [15] (standard, 5 mg/kg b.w.) is 2.
